Patent US7238703B2, “Azabicyclic, azatricyclic and azaspirocyclic derivatives of aminocyclohexane NMDA, 5HT3, and neuronal nicotinic receptor antagonists” (priority 2002, dated 2007)
pIC50, pKd, pKi: −log10 of the molar value. Counter-ions that a name gives are not always drawn. Like-named read-outs stand apart in the source and are kept apart here.

Columns and labels:
[1] = biological target: T1, NR1a/2A receptors (Homo sapiens, UniProt Q05586+Q12879); assay: NMDA receptor subtype expression in Xenopus oocytes, two-electrode voltage clamp; format: cell-based
T1 construct: expressed in transfected cells; host or cells: Xenopus laevis oocytes injected with subunit RNA
Protocol: Mature female Xenopus laevis were anaesthetized in 0.2% Tricaine on ice for 15 min prior to surgery. Oocytes were removed and incubated in 2 mg/ml collagenase (type II) in Ca^2+-free oocyte Ringer solution (82.5 mM NaCl, 2 mM KCl, 2 mM MgCl2, 5 mM HEPES, pH 7.5) for 30 min. at room temperature and washed thoroughly with OR-2 (100 mM NaCl, 2 mM KCl, 1 mM MgCl2, 2 mM CaCl2, 5 mM HEPES, pH 7.5). The remaining follicle cell layer was removed manually with fine forceps and the oocytes were kept in OR-2. The RNA was dissolved in DEPC-treated, sterile distilled water. RNA for the NMDA NR1a subunit was mixed 1:1 with RNA for the NR2A subunit. Likewise neuronal nicotinic α4 RNA was mixed 1:1 with RNA for the β2 subunit. Fifty to 100 nanoliters of each RNA mixture were injected in the oocyte's cytoplasm using a Nanoliter Injector (World Precision Instruments). The oocytes were incubated at 19° C. in OR-2 for the following 3 to 6 days.
The electrophysiological responses were obtained using the standard two-electrode voltage-clamp method (GeneClamp 500 amplifier), 2-6 days after injection. […] Recordings were made in a custom made chamber with 2 to 3 second exchange times. The bath solution was prepared Ca^2+-free, to avoid Ca^2+-induced Cl^− currents (100 mM NaCl, 2 mM KCl, 5 mM HEPES, 2 mM BaCl2, pH 7.35). NMDA receptors were activated by the manual co-application of 1 mM Glutamate and 10 μM Glycine for 30-40 secs every 2 to 3 mins to oocytes clamped at −70 mV. Neuronal nicotinic receptors were activated by application of 100 μM acetylcholine for 20-30 secs every 2 to 3 mins to oocytes clamped at −70 mV. After obtaining stable control responses, full concentration-response curves with antagonists were obtained by preincubating 6-7 different concentrations at log 3 intervals.
Only results from stable cells were accepted for inclusion in the final analysis i.e. showing at least 50% recovery of responses to NMDA following removal of the antagonist tested. Despite this, recovery from drug actions wasn't always 100% because of minor rundown or runup in some cells. When present, this was always compensated by basing the % antagonism at each concentration on both control and recovery and assuming a linear time course for this rundown. All antagonists were assessed at steady-state blockade with 6 to 7 concentrations on at least 4 cells. Equilibrium blockade was achieved within 1 to 3 agonist applications, depending on antagonist concentration.
Kinetic experiments were performed by applying various concentrations of unsaturated amino-alkyl-cyclohexanes (normally 5 in a log 3 dosing regime) for 10-20 seconds in the continuous presence of glutamate (100 μM and glycine 10 μM) for 90-180 seconds in Xenopus oocytes expressing NR1a/2A receptors. The perfusion system used for these experiments was a modified oocyte carousel system which allows rapid wash in and wash out of agonist and antagonist with change times less than one second. Exponential fits were made using the program TIDA for windows and most responses were well fitted by a single exponential. This same system was used to access the voltage-dependency of blockade, but the bath solution contained flufenamic acid (100 μM) to block endogenous voltage-activated and Ca^2+ activated Cl^− currents. Also, Ba^2+ (2 mM) was replaced by low concentrations of Ca^2+ (0.2 mM). Following equilibrium blockade by higher concentrations of antagonist (normally around 10 times the IC50), five ramps were driven from −70 mV to +30 mV over two seconds. Similar ramps were driven in bath solutions and for glutamate without antagonist, both before antagonist application and following recovery of responses. The leak currents in the absence of glutamate were substrated from the glutamate and glutamate plus antagonist curves. Voltage-dependency was then determined by comparing the glutamate and glutamate plus antagonist curves.

[2] = system: tonic convulsions (MES); assay: Maximal electroshock (MES) anticonvulsive test; format: in vivo, mice; details: Mus musculus, ip, read-out: MES ED50
Protocol: (§1) NMR female mice (18-28 g) housed 5 per cage were used for the maximal electroshock (MES) and motor impairment tests. All animals were kept with water and food ad libitum under a 12 hour light-dark cycle (light on at 6 a.m.) and at a controlled temperature (20±0.5 °C.). All experiments were performed between 10 a.m. and 5 p.m. Tested agents were injected 30 min. i.p. before the induction of convulsions if not stated otherwise (see below). All compounds were dissolved in 0.9% saline.
(§2) The MES test was performed together with tests for myorelaxant action (traction reflex) and motor coordination (rotarod). For the traction reflex test mice were placed with their forepaws on a horizontal rod and were required to place all 4 paws on the wire within 10 seconds. To test ataxia (motor coordination) mice were placed on an accelerating rotarod and were required to remain on the rod for 1 minute. […] These tests were followed by MES (100 Hz, 0.5 second shock duration, 50 mA shock intensity, 0.9 ms impulse duration, Ugo Basile) applied through corneal electrodes. The presence of tonic convulsions was scored (tonic extension of hind paws with minimum angle to the body of 90[…]). The aim was to obtain ED50s for all parameters scored (anticonvulsive activity and motor side effects) with use of the Litchfield Wilcoxon test for quantal dose responses. Division of the ED50 for side effects (ataxia or myorelaxation) by the ED50 for antagonism of electroshock convulsions was used as a therapeutic index (TI).
(§3) ED50s are presented with 95% confidence limits (Cl). Pearson product moment correlation analysis (Sigma Stat, Jandel Scientific) was used to compare in vitro potencies and in vivo anticonvulsant activity.

[3] = system: traction reflex; assay: Myorelaxant action (traction reflex); format: in vivo, mice; details: for Myorelaxation ED50: NMR female mice, i.p., traction reflex, in mg/kg; for TI Myorelaxation: ED50 myorelaxation divided by ED50 MES
Protocol: as §1, §2
(§4) Pearson product moment correlation analysis (Sigma Stat, Jandel Scientific) was used to compare in vitro potencies and in vivo anticonvulsant activity.

[4] = biological target: NMDA receptor ([3H]-(+)-MK-801 site); assay: [3H]-(+)-MK-801 receptor binding, rat cortex membranes; details: for pKi: glycine 10 μM, glutamate 10 μM, mean, n=3
Protocol: Male Sprague-Dawley rats (200-250 g) were decapitated and their brains were removed rapidly. The cortex was dissected and homogenized in 20 volumes of ice-cold 0.32 M sucrose using a glass-Teflon homogenizer. The homogenate was centrifuged at 1000× g for 10 min. The pellet was discarded and the supernatant centrifuged at 20,000× g for 20 min. The resulting pellet was re-suspended in 20 volumes of distilled water and centrifuged for 20 min at 8000× g. Then the supernatant and the buffy coat were centrifuged at 48,000× g for 20 min in the presence of 50 mM Tris-HCl, pH 8.0. The pellet was then re-suspended and centrifuged two to three more times at 48,000× g for 20 min in the presence of 50 mM Tris-HCl, pH 8.0. All centrifugation steps were carried out at 4° C. After resuspension in 5 volumes of 50 mM Tris-HCl, pH 8.0 the membrane suspension was frozen rapidly at −80° C.
On the day of assay the membranes were thawed and washed four times by resuspension in 50 mM Tris-HCl, pH 8.0 and centrifugation at 48,000× g for 20 min. and finally re-suspended in 50 mM Tris-HCl, pH 7.4. The amount of protein in the final membrane preparation (250-500 μg/ml) was determined according to the method of Lowry et al. (1951). Incubations were started by adding [^3H]-(+)-MK-801 (23.9 Ci/mmol, 5 nM, Dupont NEN) to vials with glycine (10 μM), glutamate (10 μM), and 125-250 μg protein (total volume 0.5 ml) and various concentrations of the agents tested (10 concentrations in duplicates). The incubations were continued at room temperature for 120 min (equilibrium was achieved under the conditions used). Non-specific binding was defined by the addition of unlabeled (+)-MK-801 (10 μM). Incubations were terminated using a Millipore filter system. The samples were rinsed twice with 4 ml of ice cold assay buffer over glass fibre filters (Schleicher & Schuell) under a constant vacuum. Following separation and rinse the filters were placed into scintillation liquid (5 ml; Ultima Gold) and radioactivity retained on the filters was determined with a conventional liquid scintillation counter (Hewlett Packard, Liquid Scintillation Analyser). […] Most antagonists were tested in 3 to 7 separate experiments.
IC50s in patch clamp and binding studies were calculated according to the four parameter logistic equation using the Grafit computer program (Erithacus Software, England). Ki value for binding studies were then determined according to Cheng and Prusoff. Binding values presented are means±SEM of 3-5 determinations (each performed in duplicate).

[5] = Ataxia / motor coordination (rotarod); format: in vivo, mice; details: mouse, in vivo, ip; NMR female mice, accelerating rotarod
Protocol: as §1, §2, §3

[6] = Myorelaxant action (traction reflex); format: in vivo, mice; details: mouse, in vivo, ip; NMR female mice, i.p., traction reflex; read-out: Myorelaxation ED50
Protocol: as §1, §2, §4

[7] = system: motor coordination (rotarod); assay: Ataxia / motor coordination (rotarod); format: in vivo, mice; details: ED50 ataxia divided by ED50 MES
Protocol: as §1, §2, §3

[8] = Xenopus oocytes, N=6, read-out: NMDA IC50

T1 sequence (Q12879 23-1464, other chains not shown): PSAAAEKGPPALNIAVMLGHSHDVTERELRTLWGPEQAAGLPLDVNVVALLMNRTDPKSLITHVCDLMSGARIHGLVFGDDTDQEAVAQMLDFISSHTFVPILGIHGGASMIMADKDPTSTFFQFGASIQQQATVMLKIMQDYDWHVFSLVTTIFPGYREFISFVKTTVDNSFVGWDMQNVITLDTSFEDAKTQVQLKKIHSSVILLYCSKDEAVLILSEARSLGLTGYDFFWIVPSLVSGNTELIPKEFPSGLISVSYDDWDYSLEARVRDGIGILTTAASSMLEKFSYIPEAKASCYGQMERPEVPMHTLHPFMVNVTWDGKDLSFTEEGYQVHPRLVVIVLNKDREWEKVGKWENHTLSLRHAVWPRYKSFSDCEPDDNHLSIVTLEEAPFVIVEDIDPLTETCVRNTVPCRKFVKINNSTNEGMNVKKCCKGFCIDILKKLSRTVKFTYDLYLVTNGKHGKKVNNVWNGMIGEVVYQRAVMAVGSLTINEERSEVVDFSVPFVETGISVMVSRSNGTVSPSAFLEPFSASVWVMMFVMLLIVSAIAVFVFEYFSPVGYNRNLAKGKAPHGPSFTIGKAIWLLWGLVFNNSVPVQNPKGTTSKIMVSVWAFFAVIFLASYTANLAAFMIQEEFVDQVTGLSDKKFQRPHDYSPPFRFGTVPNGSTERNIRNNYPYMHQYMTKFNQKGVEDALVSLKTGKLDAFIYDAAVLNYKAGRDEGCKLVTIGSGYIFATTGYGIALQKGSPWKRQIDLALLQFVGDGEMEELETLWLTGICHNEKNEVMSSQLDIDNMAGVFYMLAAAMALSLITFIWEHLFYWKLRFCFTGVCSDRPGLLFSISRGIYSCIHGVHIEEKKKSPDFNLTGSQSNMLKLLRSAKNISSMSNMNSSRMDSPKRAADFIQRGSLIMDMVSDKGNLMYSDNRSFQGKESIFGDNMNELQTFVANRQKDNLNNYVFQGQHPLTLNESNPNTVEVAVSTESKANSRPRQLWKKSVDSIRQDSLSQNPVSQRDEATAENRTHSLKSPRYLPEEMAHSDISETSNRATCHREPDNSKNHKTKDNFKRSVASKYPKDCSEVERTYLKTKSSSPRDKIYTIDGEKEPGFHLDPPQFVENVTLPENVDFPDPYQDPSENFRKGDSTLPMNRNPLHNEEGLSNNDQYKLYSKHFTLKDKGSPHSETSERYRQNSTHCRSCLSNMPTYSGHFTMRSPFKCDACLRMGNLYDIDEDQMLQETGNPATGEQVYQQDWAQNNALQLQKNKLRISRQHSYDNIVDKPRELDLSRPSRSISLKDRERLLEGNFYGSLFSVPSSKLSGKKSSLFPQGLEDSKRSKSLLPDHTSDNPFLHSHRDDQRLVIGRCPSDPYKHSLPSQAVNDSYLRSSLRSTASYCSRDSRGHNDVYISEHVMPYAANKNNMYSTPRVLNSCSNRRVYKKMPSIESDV

| Compound | ED50 [2] [mg/kg] | pKi [4] | ED50 at 30 min [5] [mg/kg] | pIC50 [1, 8] | ED50 at 30 min [6] [mg/kg] | other results |
| --- | --- | --- | --- | --- | --- | --- |
| CC1(C)CC2(C)CNC(C)(C1)C2.Cl (centres unmarked) [MRZ 2/1010, 1,3,3,5-Tetramethyl-6-azabicyclo [3.2.1]octane hydrochloride] | 5.91 | 5.59 | 24.9 |  |  | pIC50 [1]: 6.12; Hill ([1]; Xenopus oocytes expressing NR1a/2A, glutamate 100 μM, glycine 10 μM, -70 mV): 0.63; Myorelaxation ED50 [3]: 10.62 |
| CC1CC2(C)CC(C)(C1)C(c1ccccc1)N2 (stereo not drawn) [MRZ 2028, 1,exo-3,5-Trimethyl-exo,endo-7-phenyl-6-azabicyclo[3.2.1]octane hydrochloride] |  | 5.49 |  | 4.99 |  |  |
| CN1CC2(C)CC(C)(C)CC1(C)C2.Cl (centres unmarked) [MRZ 2/1003, 1,3,3,5,6-Pentamethyl-6-azabicyclo [3.2.1]octane hydrochloride] | 16.2 | 5.13 | 20.6 |  |  | Myorelaxation ED50 [3]: 16.77 |
| CCC12CC(C)CC(C)(CN1)C2 (stereo not drawn) [MRZ 2023, 5-Ethyl-1,exo-3-dimethyl-6-azabicyclo[3.2.1]octane hydrochloride] | > 30 | 4.63 | > 30 | 4.79 | > 30 |  |
| CCC12CC(C)(C)CC(C)(CN1)C2 (centres unmarked) [MRZ 2022, 5-Ethyl-1,3,3-trimethyl-6-azabicyclo[3.2.1]octane hydrochloride] |  | 4.84 |  |  |  | pIC50 [1]: 4.86 |
| (+)-5-methyl-10,11-dihydro-5H-dibenzocyclohepten-5,10-imine maleate [[^3H]-(+)-MK-801, reference compound] |  |  |  |  |  | pKd ([4]; read-out: Kd of radioligand by Scatchard analysis): 8.34 |
| CC1CC2(C)CNC(C)(C1)C2 (stereo not drawn) [MRZ 2011, 1,exo-3,5-Trimethyl-6-azabicyclo[3.2.1]octane hydrochloride] |  | 4.80 |  |  |  |  |
| CC1CC2(C)CC(C)(C1)C(C)N2 (stereo not drawn) [MRZ 2029, 1,exo-3,5,exo,endo-7-Tetramethyl-6-azabicyclo[3.2.1]octane hydrochloride] | > 50 | 4.88 | > 50 | 4.44 | > 50 |  |
| CC1(C)CC(C)(C)CC2(CCCCN2)C1.Cl [MRZ 2/1013, 8,8,10,10-Tetramethyl-1-azaspiro[5.5]undecane hydrochloride] | 9.39 | 5.44 | 37.2 |  | 34.5 | pIC50 [1]: 5.33; TI Myorelaxation [3]: 3.67; TI Ataxia [7]: 3.97 |
| CCC1CC2(C)CNC(C)(C1)C2 (stereo not drawn) [MRZ 2007, exo-3-Ethyl-1,5-dimethyl-6-azabicyclo[3.2.1]octane hydrochloride] | > 50 | 5.26 | 50 | 5.17 | > 50 |  |
| CC1(C)CC(C)(C)CC2(CCCN2)C1.Cl [MRZ 2/1004, 7,7,9,9-Tetramethyl-1-azaspiro[4.5]decane hydrochloride] |  | 4.98 | 24 |  | 27.5 | ED50 ([2]; NMR female mice, i.p. 30 min before convulsions): 24.1 mg/kg; TI Myorelaxation [3]: 1.14; TI Ataxia [7]: 1.00 |
